Reference: patent publication US20150284674A1, “CAMPYLOBACTER BACTERIA AND DETECTION” (priority 2012, published 2015)
Converted amounts (≈) assume the structure as drawn.

Assays:
C. lari = details: taxon 18: C. lari; cited from earlier work
C. avium sp. Nov = details: taxon 1: C. avium sp. Nov; cited from earlier work
C. cuniculurom = details: taxon 5: C. cuniculurom; cited from earlier work
C. curvus = details: taxon 6: C. curvus; cited from earlier work
C. insulaenigrae = details: taxon 14: C. insulaenigrae; cited from earlier work
C. coli = details: taxon 3: C. coli; cited from earlier work
C. jejuni subsp. Jejuni = details: taxon 16: C. jejuni subsp. Jejuni; cited from earlier work
C. gracilis = details: taxon 9: C. gracilis; cited from earlier work
C. rectus = details: taxon 20: C. rectus; cited from earlier work
C. concisus = details: taxon 4: C. concisus; cited from earlier work
[1] = system: C. fetus subsp. venerealis; details: taxon 8: C. fetus subsp. venerealis; cited from earlier work
C. mucosalis = details: taxon 19: C. mucosalis; cited from earlier work
C. hominus = details: taxon 11: C. hominus; cited from earlier work
[2] = system: Campylobacter novel strains; test: Antimicrobial susceptibility testing by agar dilution method (MIC); details: Campylobacter;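 also: agar dilution MIC on HBA, used in place of the BSAC-recommended Iso-sensitest agar, across a panel of 14 antimicrobials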
Description: Antimicrobial susceptibility testing was performed using the agar dilution method for the Campylobacter novel strains against 14 antimicrobials. […] As the strains were unable to grow on the Iso-sensitest agar (ISA) recommended by the BSAC guidelines, HBA (Table 1) was used as an alternative media.

C. fetus subsp. fetus = details: taxon 7: C. fetus subsp. fetus; cited from earlier work
C. lanienae = details: taxon 17: C. lanienae; cited from earlier work
C. sputorum = details: taxon 22: C. sputorum; cited from earlier work
C. canadensis = details: taxon 2: C. canadensis; cited from earlier work
[3] = system: C. hyointestinalis subsp. lawsonii; details: taxon 13: C. hyointestinalis subsp. lawsonii; cited from earlier work
C. showae = details: taxon 21: C. showae; cited from earlier work
C. jejuni subsp. Doylei = details: taxon 15: C. jejuni subsp. Doylei; cited from earlier work
[4] = system: C. hyointestinalis subsp. hyointestinalis; details: taxon 12: C. hyointestinalis subsp. hyointestinalis; cited from earlier work
[5] = system: novel campylobacter isolates; test: Disc diffusion susceptibility to nalidixic acid and cephalothin (30 μg discs); format: cell-based; details: for Susceptibility to (30 μg disc): disc diffusion; as to Susceptibility to (30 μg disc): key: S, susceptible; R, resistant
C. helveticus = details: taxon 10: C. helveticus; cited from earlier work
C. upsaliensis = details: taxon 23: C. upsaliensis; cited from earlier work

SMILES: CCn1cc(C(=O)O)c(=O)c2ccc(C)nc21 [Nalidixic acid]
- resistance (share of strains positive) (C. lari): V (V, 26-74% of strains positive)
- resistance (share of strains positive) (C. avium sp. Nov): − (−, 0-10% of strains positive)
- resistance (share of strains positive) (C. cuniculurom): V (V, 26-74% of strains positive)
- resistance (share of strains positive) (C. curvus): + (+, 90-100% of strains positive)
- resistance (share of strains positive) (C. insulaenigrae): + (+, 90-100% of strains positive)
- resistance (share of strains positive) (C. coli): − (−, 0-10% of strains positive)
- resistance (share of strains positive) (C. jejuni subsp. Jejuni): − (−, 0-10% of strains positive)
- resistance (share of strains positive) (C. gracilis): V (V, 26-74% of strains positive)
- resistance (share of strains positive) (C. rectus): (+) ((+), 75-89% strains positive)
- resistance (share of strains positive) (C. concisus): (+) ((+), 75-89% strains positive)
- resistance (share of strains positive) [1]: V (V, 26-74% of strains positive)
- resistance (share of strains positive) (C. mucosalis): (+) ((+), 75-89% strains positive)
- resistance (share of strains positive) (C. hominus): V (V, 26-74% of strains positive)
- MIC50 [2]: 4 µg/mL (≈ 17.2 µM)
- MIC90 [2]: 8 µg/mL (≈ 34.4 µM)
- resistance (share of strains positive) (C. fetus subsp. fetus): + (+, 90-100% of strains positive)
- resistance (share of strains positive) (C. lanienae): + (+, 90-100% of strains positive)
- resistance (share of strains positive) (C. sputorum): (+) ((+), 75-89% strains positive)
- resistance (share of strains positive) (C. canadensis): V (V, 26-74% of strains positive)
- resistance (share of strains positive) [3]: + (+, 90-100% of strains positive)
- resistance (share of strains positive) (C. showae): − (−, 0-10% of strains positive)
- resistance (share of strains positive) (C. jejuni subsp. Doylei): − (−, 0-10% of strains positive)
- resistance (share of strains positive) [4]: + (+, 90-100% of strains positive)
- susceptibility / resistance of the novel Campylobacter strains, in words ([5]; disc diffusion tests, 30 μg disc, novel Campylobacter strains overall): susceptible
- Susceptibility to (30 μg disc) ([5]; strain Farm 1 2009/1): S
- Susceptibility to (30 μg disc) ([5]; strain Farm 1 2009/2): S
- Susceptibility to (30 μg disc) ([5]; strain Farm 1 2011/1): S
- Susceptibility to (30 μg disc) ([5]; strain Farm 1 2011/2): S
- Susceptibility to (30 μg disc) ([5]; strain Farm 1 2011/3): S
- Susceptibility to (30 μg disc) ([5]; strain Farm 1 2011/4): S
- Susceptibility to (30 μg disc) ([5]; strain Farm 1 2011/5): S
- Susceptibility to (30 μg disc) ([5]; strain Farm 1 2011/6): S
- Susceptibility to (30 μg disc) ([5]; strain Farm 2 2011/1): S
- Susceptibility to (30 μg disc) ([5]; strain Farm 2 2011/2): S
- Susceptibility to (30 μg disc) ([5]; strain Farm 2 2011/3): S
- Susceptibility to (30 μg disc) ([5]; strain Farm 2 2011/4): S
- Susceptibility to (30 μg disc) ([5]; strain Farm 3 2011/1): S
- Susceptibility to (30 μg disc) ([5]; strain Farm 3 2011/2): S
- Susceptibility to (30 μg disc) ([5]; strain Farm 3 2011/3): S
- Susceptibility to (30 μg disc) ([5]; strain Farm 4 2011/1): S
- Susceptibility to (30 μg disc) ([5]; strain Farm 4 2011/2): S
- Susceptibility to (30 μg disc) ([5]; strain Farm 4 2011/3): S
- resistance (share of strains positive) ([5]; taxon A: Campylobacter novel (n=23)): − (−, 0-10% of strains positive)
- resistance (share of strains positive) (C. helveticus): − (−, 0-10% of strains positive)
- resistance (share of strains positive) (C. upsaliensis): − (−, 0-10% of strains positive)
